Experimental findings from patent publication US11331368B2, “Angiotensin receptor agonists and uses thereof” (Monash University, priority 2017, dated 2022) are described below.

The target of one assay is T1, human AT1R (Homo sapiens, UniProt P30556).
T1 construct: expressed in transfected cells
T1 sequence (P30556 1-359): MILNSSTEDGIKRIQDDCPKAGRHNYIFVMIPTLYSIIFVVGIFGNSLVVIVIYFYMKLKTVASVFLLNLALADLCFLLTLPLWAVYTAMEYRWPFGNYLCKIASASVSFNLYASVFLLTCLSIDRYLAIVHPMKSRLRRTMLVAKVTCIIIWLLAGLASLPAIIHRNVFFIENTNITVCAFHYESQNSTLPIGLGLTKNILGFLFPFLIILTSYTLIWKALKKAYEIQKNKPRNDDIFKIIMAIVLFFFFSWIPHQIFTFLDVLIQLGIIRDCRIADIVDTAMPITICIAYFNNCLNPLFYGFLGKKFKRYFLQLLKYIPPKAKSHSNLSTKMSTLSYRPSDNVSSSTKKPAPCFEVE
The experiment in a line: Competition radioligand binding (125I-Sar1-Ile8-AngII) in AT1R-transfected HEK-293 cells.

In assay [1] the test system is stroke-prone spontaneously hypertensive rats (SHRSP). The experiment in a line: Stroke-prone spontaneously hypertensive rats (SHRSP), 4-week infusion. As to conditions: 75 pmol/kg/min s.c. for 4 weeks. It is filed as in vivo, rat. How it is done:
FIG. 27: AT2R stimulation by β-Pro^7-Ang III attenuates cardiac fibrosis in stroke-prone spontaneously hypertensive rats (SHRSP). Mean data for cardiac fibrosis determined by picrosirius red staining of transverse heart sections, under bright field microscopy, taken from ˜25-week old, male stroke-prone spontaneously hypertensive rats (SHRSP) that received either saline or β-Pro^7-Ang III (75 pmol/kg/min subcutaneously via osmotic mini-pump) for 4 weeks (n=3-4). Data expressed as mean±s.e.m of percentage positive stained area for fibrosis. **P<0.01 versus saline (unpaired t-test).
For the first time, β-Pro^7-Ang III was tested at the same dose, duration and route of administration (75 pmol/kg/min subcutaneously via osmotic mini-pump for 4 weeks) in adult male stroke-prone spontaneously hypertensive rats (SHRSP).

The subject of a further assay is mouse aortae. The experiment in a line: Vasorelaxation of pre-contracted mouse aortae. The conditions noted are these: 0.1-1000 nM, pre-contracted with U46619. The source says:
FIG. 17: The selective AT2R ligands, β-Pro^7-Ang III and D-Arg^2-β-Pro^7-Ang III, are functional agonists in vasculature.

Assay [2] deals with male FVB/N mice on high salt diet, heart. The experiment in a line: High salt (5%) diet intervention model, heart. In kind it is in vivo, mouse. In a few lines:
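Male FVB/N mice fed 5% salt diet for 8 weeks (controls 0.35% NaCl); from week 4, AT2R agonist at 75 pmol/kg/min or saline given subcutaneously by osmotic minipump for 4 weeks on continued high salt. Heart collagen by picrosirius red, % interstitial staining averaged over eight fields; immunofluorescence for fibrosis/inflammation markers.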

Experimental for human AT1R: This will lead to the generation of IC50 values that determine the relative ability of test compounds to interact with both Angiotensin receptors.
Cells were grown to approximately 80% confluence before being re-plated into 48 well plates at 1×10^5 cells/well and grown for 48 hours at 37° C. for a whole cell competition binding assay. [125I]-Sar1Ile8Ang II at 50,000 cpm, incubated for 45 minutes at 37° C., in the absence or presence of unlabeled ligands, prepared in binding buffer (DMEM, 0.1% BSA), were used in the competition assays at concentrations ranging from 1 μM to 10 μM. For each experiment, each ligand concentration was tested in duplicate or triplicate, and each experiment was repeated at least 3 separate times. […] The ability of each ligand to inhibit specific binding of [125I]-Sar1Ile8Ang II was measured on a gamma counter with all counts corrected for NSB.

Take “Arg-Val-Tyr-Ile-His-β-Pro-Phe [βPro-Ang III]”: the “binding at AT1R (displacement of 125I-Sar1-Ile8-AngII), in words” value on human AT1R is on record as “bind poorly”. In assay [1], the “SBP in SHRSP” value is “did not affect SBP” and the “cardiac fibrosis (picrosirius red) in SHRSP” value is given as “significantly reduced cardiac fibrosis”. Moreover, in the assay on mouse aortae, the “vasorelaxation of pre-contracted aortae” value is “concentration-dependent vasorelaxation”. The “myofibroblast differentiation in heart (α-SMA)” value in assay [2] (75 pmol/kg/min s.c., weeks 5-8) was “fully reversed the high salt-induced myofibroblast differentiation”. The “cardiac fibrosis (picrosirius red)” value in assay [2] (weeks 5-8 of high salt diet, peptides 75 pmol/kg/min s.c. mini-pump, Cand 2 mg/kg/day, captopril 3 mg/kg/day in drinking water) was “reversed established cardiac fibrosis”.
